We go through 45 molecules from patent US11643417B2, “Tetrahydrobenzofurodiazepinone compound and pharmaceutical use thereof” (priority 2020, dated 2023).

Like-named read-outs stand apart in the source and are kept apart here.

What is called Ki is the equilibrium dissociation constant of an inhibitor or competing ligand from its target.

The target in this assay is human Pim-1 (Homo sapiens (Human), UniProt P11309). Description: biochemical. The following applies: Ki converted from IC50, purified human Pim-1, Pim2tide substrate, ADP-Glo. Format: biochemical. How it is done:
The human Pim-1 inhibitory activity of the test compounds was evaluated as follows.
(1) Purification of Human Pim-1
DNA fragment in which a His-Tag sequence and a translation termination sequence are added to the 3′-end of human Pim-1 translation sequence was amplified by PCR (Polymerase Chain Reaction), using human Pim-1 gene-inserted plasmid DNA (Kazusa DNA Laboratory, model number FXC11400) as a template. The amplified DNA fragment was fused with pGEx-6P-1 (GE Healthcare Japan, model number 27-4597-1) digested with BamHI and EcoRI using In-Fusion HD Cloning Kit (Takara Bio, model number 639649). […] The base sequence of Pim-1 cloned into vector was determined by Dye Terminator method using BigDye Terminator v3.1 Cycle Sequencing Kit (Applied Biosystems, model number 4337456). […] Escherichia coli BL21 (DE3) (Merck KGaA, model number 69449-4) transformed with human Pim-1-expressed plasmid DNA was cultured in 2×YT medium (Becton Dickinson, model number 2404020) at 30° C., until the optical concentration at 620 nm (OD620) reached 0.6, and then cultured overnight at 20° C. in the presence of 0.5 mmol/L isopropyl b-D-1-thiogalactopyranoside. After the completion of so the culture, the cells were collected and suspended in Homogenate Buffer (50 mmol/L Tris-HCl (pH 7.5), 500 mmol/L NaCl, 1% Tween20, complete, EDTA-free (Roche, model number 1873580)), and the suspended cells were lysed by passing through a microfluidizer M-110H (Mizuho Kogyo Co., Ltd.). The lysate was centrifuged at 10,100×g for 10 minutes, 4° C., and the supernatant was filtered through MILLEX-HV Filter (0.45 μm) (Millipore, SLHV033RS) to remove the cell residues. The filtrate was loaded onto complete His-Tag Purification Resin (Roche Diagnostics, model number 05 893 682 0.01). The column was washed with Equilibration Buffer-1 (50 mmol/L Tris-HCl (pH 7.5), 500 mmol/L NaCl, 1% Tween 20) containing 5 mmol/L Imidazole, followed by Equilibration Buffer-1 containing 50 mmol/L Imidazole, the human Pim-1 to which GST-Tag derived from pGEx-6P-1 was eluted with Equilibration Buffer-1 containing 150 mmol/L imidazole. […] The protease reaction was carried out by stirring overnight at 4° C., and the human Pim-1 in which the GST-Tag sequence was cleaved was eluted. The eluate was loaded onto a gel filtration column (Superdex-200 […] (GE Healthcare, model number 17-5175-01)) equilibrated with Equilibration Buffer-3 (50 mmol/L Tris-HCl (pH 7.5), 500 mmol/L NaCl, 0.05% Tween20, 0.5 mmol/L EDTA, 2 mmol/L DTT, 10% Glycerol), and eluted. The eluate was used as a human Pim-1 purified fraction.
The protein concentration of the human Pim-1 purified fraction was measured with Pierce 660 nm Protein Assay Reagent (Thermo Fisher Scientific, model number 22660). The purified fraction was rapidly frozen in liquid nitrogen, and then stored at −80° C. The His-Tag-added human Pim-1 was detected by Western blotting using a mouse anti-His monoclonal antibody (WAKO, model number 011-23091).
(2) Evaluation of Human Pim-1 Inhibitory Activity
The calculation of the Pim-1 inhibitory activity of the compound was performed using the following solution according to the protocol attached to ADP-Glo Kinase Assay (cat. V9102, Promega). The purified enzyme of human Pim-1 described above was used.
(i) Preparation of Solution
The kinase buffer solution (50 mmol/L HEPES (pH 7.5), 5 mmol/L MgCl2, 1 mmol/L DTT, 0.05% BSA) was prepared by dissolving HEPES (Jena Bioscience), MgCl2 (Sigma-Aldrich), DTT (Sigma-Aldrich) and BSA (Sigma-Aldrich) in purified water.
The ATP solution (288 μmol/L) was prepared by dissolving 100 mmol/L ATP (Promega) in the kinase buffer solution.
For orientation: ADP-Glo turns the ADP formed in a reaction into a luminescent signal.

human Pim-1, sequence (P11309 whole entry): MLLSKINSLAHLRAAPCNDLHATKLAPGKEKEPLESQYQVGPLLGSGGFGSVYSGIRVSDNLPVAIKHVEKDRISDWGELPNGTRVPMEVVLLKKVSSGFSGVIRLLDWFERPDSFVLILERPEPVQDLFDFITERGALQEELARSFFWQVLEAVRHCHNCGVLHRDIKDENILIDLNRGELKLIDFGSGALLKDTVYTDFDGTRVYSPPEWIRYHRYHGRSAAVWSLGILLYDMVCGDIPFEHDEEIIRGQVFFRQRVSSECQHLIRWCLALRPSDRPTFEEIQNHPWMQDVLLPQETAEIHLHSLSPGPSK

With `COC(C1CC(O)C1)C1(CN2CCNC(=O)c3oc4ccc(C(F)(F)F)cc4c32)CC1` (stereo not drawn) [Example 17], where the note is “read-out: hPim1 Ki”, the Ki amounted to 0.234 nM. As to `O=C1NCCN(CC(F)(F)C2CC(CO)CCO2)c2c1oc1ccc(C(F)(F)F)cc21` (single isomer, unassigned) [Example 15], affinity (hPim1 Ki (nM)) was put at a Ki of 0.0289 nM. Turning to `O=C1NCCN(CCC2CC3(CC(CO)C3)C2)c2c1oc1ccc(C(F)(F)F)cc21` (racemic) [Example 143], the Ki (read-out: hPim1 Ki) is 0.947 nM. The same measure, in the same setting: the same measure for `CC(C)(O)C1(O)CCOC(C(F)(F)CN2CCNC(=O)c3oc4ccc(C(F)(F)F)cc4c32)C1` (stereo not drawn) [Example 30]: 0.0577 nM; for `O=C1NCCN(CCC2CCC(CO)CCO2)c2c1oc1ccc(C(F)(F)F)cc21` (stereo not drawn) [Example 9]: 0.481 nM; for `O=C1NC2(CC2)CN(CC[C@@H]2CO[C@H](CO)CO2)c2c1oc1ccc(C(F)(F)F)cc21` [Example 153]: 0.302 nM. Same read-out and setting: with `CS(=O)(=O)C[C@H]1CO[C@H](CCN2CC3(CC3)NC(=O)c3oc4ccc(C(F)(F)F)cc4c32)CO1` [Example 161] the figure was 0.188 nM; with `O=C1NCCN(CC[C@H]2CC[C@](O)(C(F)(F)F)CC2)c2c1oc1ccc(C(F)(F)F)cc21` [Example 85], 4.08 nM; with `N#CC1(CCO)CCOC(C(F)(F)CN2CCNC(=O)c3oc4ccc(C(F)(F)F)cc4c32)C1` (stereo not drawn) [Example 33], 0.0793 nM. `O=C1NCCN(CC[C@@H]2CO[C@@H](CO)CO2)c2c1oc1ccc(C(F)(F)F)cc21` [Example 74]: the Ki (read-out: hPim1 Ki) was found to be 0.738 nM. On the same count and under the same terms, with `O=C1NCCN(CC(F)(F)[C@H]2CC[C@H](O)CC2)c2c1oc1ccc(C(F)(F)F)cc21` [Example 106, 1-(2,2-difluoro-2-((1r,4r)-4-hydroxycyclohexyl)ethyl)-9-(trifluoromethyl)-1,2,3,4-tetrahydro-5H-benzofuro[3,2-e][1,4]diazepin-5-one] the figure was 0.0409 nM. Still for that read-out and setting: with `O=C1NC2(CC2)CN(CC[C@H]2CO[C@@H](CF)CO2)c2c1oc1ccc(C(F)(F)F)cc21` [Example 157] the figure was 0.234 nM; with `C[C@]1(O)CC[C@H](CCN2CCNC(=O)c3oc4ccc(C(F)(F)F)cc4c32)CC1` [Example 80], 0.205 nM.

`O=C1NC2(CC2)CN(CCC2CCC(O)CC2)c2c1oc1ccc(C(F)(F)F)cc21` (stereo not drawn) [Example 126]: where the note is “read-out: hPim1 Ki”, the Ki was 0.464 nM. Turning to `CC1COCC(CCN2CCNC(=O)c3oc4ccc(C(F)(F)F)cc4c32)O1` (racemic) [Example 115], the Ki (read-out: hPim1 Ki) was determined as 0.672 nM. In the case of `N#CCC1(O)CCC(CCN2CCNC(=O)c3oc4ccc(C(F)(F)F)cc4c32)CC1` (stereo not drawn) [Example 121], the Ki (read-out: hPim1 Ki) stood at 0.705 nM.

On to `O=C1NCCN(CC(F)(F)C2CC(O)CCC2(F)F)c2c1oc1ccc(C(F)(F)F)cc21` (stereo not drawn) [Example 62], for which the Ki (read-out: hPim1 Ki) was determined as 0.0461 nM. For `N#CCC1COCC(CCN2CCNC(=O)c3oc4ccc(C(F)(F)F)cc4c32)O1` (racemic) [Example 139], the Ki (read-out: hPim1 Ki) turned out to be 3.69 nM. On the same count and under the same terms, the same measure for `C[C@H]1CO[C@@H](CCN2CCNC(=O)c3oc4ccc(C(F)(F)F)cc4c32)CO1` [Example 43]: 0.741 nM. Consider `O=C(OC[C@H]1CO[C@H](CCN2CCNC(=O)c3oc4ccc(C(F)(F)F)cc4c32)CO1)c1ccccc1` [Example 73], for which, for the setting “read-out: hPim1 Ki”, the Ki was 4.74 nM. Regarding `O=C1NCCN(CCC2CCC(O)(CF)CC2)c2c1oc1ccc(C(F)(F)F)cc21` (stereo not drawn) [Example 144], under “read-out: hPim1 Ki”, the inhibition constant Ki turned out to be 0.801 nM. `C[C@@H]1CO[C@@H](CCN2CCNC(=O)c3oc4ccc(C(F)(F)F)cc4c32)CO1` [Example 44]: the Ki (read-out: hPim1 Ki) was determined as 1.04 nM.

For the molecule `O=C1NCCN(CC[C@H]2CC[C@@](O)(C(F)(F)F)CC2)c2c1oc1ccc(C(F)(F)F)cc21` [Example 84], the Ki (read-out: hPim1 Ki) was 0.236 nM. For `O=C1NCCN(CC(F)(F)C2COCCO2)c2c1oc1ccc(C(F)(F)F)cc21` (single isomer, unassigned) [Example 68], where the note is “read-out: hPim1 Ki”, the Ki came to 0.0461 nM. The same measure, in the same setting: the same measure for `N#CCC1COCC(CCN2CCNC(=O)c3oc4ccc(C(F)(F)F)cc4c32)O1` (racemic) [Example 140]: 5.8 nM; for `O=C1NCCN(CCC2COCC(CO)O2)c2c1oc1ccc(C(F)(F)F)cc21` (racemic) [Example 133]: 1.58 nM. On to `COC[C@]1(OC)CC[C@@H](CCN2CCNC(=O)c3oc4ccc(C(F)(F)F)cc4c32)CC1` [Example 2-04], for which the Ki (read-out: hPim1 Ki) stood at 1.25 nM. Consider `O=C1NCCN(CCC2CCC(F)(CO)CC2)c2c1oc1ccc(C(F)(F)F)cc21` (stereo not drawn) [Example 150], for which the Ki (read-out: hPim1 Ki) stood at 0.13 nM.

On to `O=C1CCC(C(F)(F)CN2CCNC(=O)c3oc4ccc(C(F)(F)F)cc4c32)CC1` [Example 166], for which the Ki (read-out: hPim1 Ki) was 0.189 nM. On to `O=C1NCCN(CCC2CCC(C3(O)CC3)CC2)c2c1oc1ccc(C(F)(F)F)cc21` (stereo not drawn) [Example 110], for which the Ki (read-out: hPim1 Ki) stood at 0.133 nM. Consider `O=C1NCCN(CC(F)(F)C2CC(O)C2)c2c1oc1ccc(C(F)(F)F)cc21` (stereo not drawn) [Example 151], for which the Ki (read-out: hPim1 Ki) is 0.957 nM. Take `O=C1NC2(CC2)CN(CC[C@@H]2CO[C@@H](CO)CO2)c2c1oc1ccc(C(F)(F)F)cc21` [Example 152]: under “read-out: hPim1 Ki”, the Ki came out at 0.0929 nM. As for `N#CC[C@H]1CO[C@H](CCN2CCNC(=O)c3oc4ccc(C(F)(F)F)cc4c32)CO1` (racemic) [Example 129], the Ki (read-out: hPim1 Ki) amounted to 1.18 nM. On the same count and under the same terms, with `O=C1OC[C@]2(CC[C@H](CCN3CCNC(=O)c4oc5ccc(C(F)(F)F)cc5c43)CC2)O1` [Example 2-02] the figure was 0.43 nM.

As to `O=C1NCCN(CCC2CC(O)CCC2(F)F)c2c1oc1ccc(C(F)(F)F)cc21` (stereo not drawn) [Example 38], the Ki (read-out: hPim1 Ki) was 0.189 nM. `O=C1NCCN(CC[C@H]2CC[C@](O)(CO)CC2)c2c1oc1ccc(C(F)(F)F)cc21` [Example 90, 1-(2-((1s,4s)-4-hydroxy-4-(hydroxymethyl)cyclohexyl)ethyl)-9-(trifluoromethyl)-1,2,3,4-tetrahydro-5H-benzofuro[3,2-e][1,4]diazepin-5-one]: under “read-out: hPim1 Ki”, the Ki is 0.0091 nM. On the same count and under the same terms, the same measure for `COC(C1CC(O)(CO)C1)C1(CN2CCNC(=O)c3oc4ccc(C(F)(F)F)cc4c32)CC1` (racemic) [Example 22]: 0.848 nM; for `O=C1NCCN(CCC2COCC(CF)O2)c2c1oc1ccc(C(F)(F)F)cc21` (racemic) [Example 135]: 0.66 nM.

With `O=C1NCCN(CC[C@H]2CC[C@@](O)(CCO)CC2)c2c1oc1ccc(C(F)(F)F)cc21` [Example 109], the Ki (read-out: hPim1 Ki) was 0.193 nM. Turning to `CC1(O)CCOC(C(F)(F)CN2CCNC(=O)c3oc4ccc(C(F)(F)F)cc4c32)C1` (racemic) [Example 12, 1-(2,2-difluoro-2-(4-hydroxy-4-methyltetrahydro-2H-pyran-2-yl)ethyl)-9-(trifluoromethyl)-1,2,3,4-tetrahydro-5H-benzofuro[3,2-e][1,4]diazepin-5-one], the affinity (hPim1 Ki (nM)), expressed as Ki, was 0.0388 nM. As to `O=C1NCCN(CC[C@H]2CO[C@@H](CO)CO2)c2c1oc1ccc(C(F)(F)F)cc21` [Example 42], for the setting “read-out: hPim1 Ki”, the Ki worked out at 0.567 nM. Same read-out and setting: with `CN(C)C(=O)C1CCC(CCN2CCNC(=O)c3oc4ccc(C(F)(F)F)cc4c32)CC1` (stereo not drawn) [Example 101] the figure was 0.775 nM.

Regarding `O=C1NCCN(CCC2CC3CCC(C2)O3)c2c1oc1ccc(C(F)(F)F)cc21` (stereo not drawn) [Example 81], the Ki (read-out: hPim1 Ki) was determined as 1.11 nM. On to `CS(=O)(=O)C[C@H]1CO[C@H](CCN2CCNC(=O)c3oc4ccc(C(F)(F)F)cc4c32)CO1` (racemic) [Example 130], for which the Ki (read-out: hPim1 Ki) stood at 1.16 nM.

`O=C1NCCN(CC(F)(F)C2CC3(CCO2)COC3)c2c1oc1ccc(C(F)(F)F)cc21` (racemic) [Example 57]: the Ki (read-out: hPim1 Ki) was found to be 0.0448 nM.
